Activity calls are given as the source filed them. The rule behind the calls is not given here.
Experiments:
[1] = tested on: Rattus norvegicus; test: Toxicity in Zucker rat sub-chronic fa/fa prediabetic model assessed as heart weight at 1 mg/kg, po qd for 31 days measured on day 32 (reference value: 1.19 +/- 0.04 g); format: organism-based; settings: in vivo, 744 h
[2] = tested on: Rattus norvegicus; test: Toxicity in Zucker rat sub-chronic fa/fa prediabetic model assessed as serum cholesterol level at 3 mg/kg, po qd for 31 days measured on day 32 (reference value: 295 +/- 91 mg/dl); format: organism-based; settings: in vivo, 744 h
[3] = tested on: Rattus norvegicus; test: Effect on NDUFB9 gene expression in epididymal white adipose tissue of Zucker rat sub-chronic fa/fa prediabetic model at 10 mg/kg, po qd for 15 days by microarray analysis relative to control; format: functional
[4] = tested on: Rattus norvegicus; test: Toxicity in Zucker rat sub-chronic fa/fa prediabetic model assessed as liver weight at 3 mg/kg, po qd for 31 days measured on day 32 (reference value: 28 +/- 1.6 g); format: organism-based; settings: in vivo, 744 h
[5] = tested on: Rattus norvegicus; test: Effect on PRDX3 gene expression in epididymal white adipose tissue of Zucker rat sub-chronic fa/fa prediabetic model at 10 mg/kg, po qd for 15 days by microarray analysis relative to control; format: functional
[6] = tested on: Rattus norvegicus; test: Toxicity in Zucker rat sub-chronic fa/fa prediabetic model assessed as insulin level per gram pancreas at 1 mg/kg, po qd for 31 days measured on day 32 (reference value: 55.2 +/- 5.5 ug); format: organism-based; settings: in vivo, 744 h
[7] = tested on: Rattus norvegicus; test: Toxicity in […] chronic ob/ob model assessed as change in body weight at 3 mg/kg, po qd for 28 days measured on day 1 to 28 during compound dosing (reference value: 9.9 +/- 1.27 g); format: organism-based; settings: in vivo, 672 h
[8] = biological target: Sodium channel protein type 2 subunit alpha (Homo sapiens) (UniProt Q99250); test: Activity at human Nav1.2 expressed in CHOK1 cells assessed as effect on channel current up to 10 uM by patch clamp method; format: cell-based
[9] = tested on: Rattus norvegicus; test: Effect on IKBKB gene expression in epididymal white adipose tissue of Zucker rat sub-chronic fa/fa prediabetic model at 10 mg/kg, po qd for 15 days by microarray analysis relative to control; format: functional
[10] = tested on: Rattus norvegicus; test: Effect on TXNRD2 gene expression in epididymal white adipose tissue of Zucker rat sub-chronic fa/fa prediabetic model at 10 mg/kg, po qd for 15 days by microarray analysis relative to control; format: functional
[11] = tested on: Rattus norvegicus; test: Effect on ATP5C1 gene expression in epididymal white adipose tissue of Zucker rat sub-chronic fa/fa prediabetic model at 10 mg/kg, po qd for 15 days by microarray analysis relative to control; format: functional
[12] = tested on: Rattus norvegicus; test: Toxicity in […] model assessed as serum creatinine level at 10 mg/kg, po qd for 31 days measured on day 32 (reference value: 0.55 +/- 0.018 mg/dl); format: organism-based; settings: in vivo, 744 h
[13] = AUC (0 to 24 hrs) in […] model at 50 mg/kg, po qd for 28 days measured on day 28 post last dose; format: ADME, organism-based; design: dose 50 mg/kg, time < 24 hr, route oral; settings: in vivo
[14] = tested on: Rattus norvegicus; test: Effect on IDH3B gene expression in epididymal white adipose tissue of Zucker rat sub-chronic fa/fa prediabetic model at 10 mg/kg, po qd for 15 days by microarray analysis relative to control; format: functional
[15] = tested on: Rattus norvegicus; test: Toxicity in […] chronic ob/ob model assessed as serum triglyceride level at 10 mg/kg, po qd for 31 days measured on day 32 (reference value: 329 +/- 36 mg/dl); format: organism-based; settings: in vivo, 744 h
[16] = tested on: Rattus norvegicus; test: Toxicity in […] chronic ob/ob model assessed as epididymal white adipose tissue weight at 50 mg/kg, po qd for 31 days measured on day 32 (reference value: 3.92 +/- 0.14 g); format: organism-based; settings: in vivo, 744 h
[17] = tested on: Rattus norvegicus; test: Toxicity in Zucker rat sub-chronic fa/fa prediabetic model assessed as serum ALT level at 1 mg/kg, po qd for 31 days measured on day 32 (reference value: 151 +/- 23 U/L); format: organism-based; settings: in vivo, 744 h
[18] = tested on: Rattus norvegicus; test: Toxicity in […] chronic ob/ob model assessed as body weight at 10 mg/kg, po qd for 28 days measured on day 28 post last dose (reference value: 47.3 +/- 1.06 g); format: organism-based; settings: in vivo, 672 h
[19] = tested on: Rattus norvegicus; test: Toxicity in […] chronic ob/ob model assessed as food intake at 50 mg/kg, po qd for 28 days measured on day 1 to 28 during compound dosing (reference value: 170.6 +/- 3 g); format: organism-based; settings: in vivo, 672 h
[20] = tested on: Rattus norvegicus; test: Antidiabetic activity in Zucker rat sub-chronic fa/fa prediabetic model assessed as decrease in plasma glucose AUC (0 to 120 mins) at 10 mg/kg, po qd during 10 days study by OGTT relative to control; format: functional; design: scale not given: the % may be the effect or the level left
[21] = tested on: Rattus norvegicus; test: Effect on AADAT gene expression in epididymal white adipose tissue of Zucker rat sub-chronic fa/fa prediabetic model at 10 mg/kg, po qd for 15 days by microarray analysis relative to control; format: functional
[22] = tested on: Rattus norvegicus; test: Effect on ACSS1 gene expression in epididymal white adipose tissue of Zucker rat sub-chronic fa/fa prediabetic model at 10 mg/kg, po qd for 15 days by microarray analysis relative to control; format: functional
[23] = Cmax in Zucker rat sub-chronic fa/fa prediabetic model at 3 mg/kg, po qd for 26 days measured on day 26 post last dose; format: ADME, organism-based; design: dose 3 mg/kg, route oral; settings: in vivo
[24] = tested on: Rattus norvegicus; test: Toxicity in […] chronic ob/ob model assessed as serum triglyceride level at 3 mg/kg, po qd for 31 days measured on day 32 (reference value: 329 +/- 36 mg/dl); format: organism-based; settings: in vivo, 744 h
[25] = Cmax in Sprague-Dawley rat at 10 mg/kg administered via oral gavage by LC-MS analysis; format: ADME, organism-based; design: dose 10 mg/kg, route oral; settings: in vivo
[26] = tested on: Rattus norvegicus; test: Antidiabetic activity in Zucker rat sub-chronic fa/fa prediabetic model assessed as fasting blood insulin level at 3 mg/kg, po qd for 31 days measured on day 29 post dose (reference value: 8.5 +/- 1.4 ug/L); format: functional
[27] = tested on: Rattus norvegicus; test: Effect on IL1RL1 gene expression in epididymal white adipose tissue of Zucker rat sub-chronic fa/fa prediabetic model at 10 mg/kg, po qd for 15 days by microarray analysis relative to control; format: functional
[28] = tested on: Rattus norvegicus; test: Effect on PGAM2 gene expression in epididymal white adipose tissue of Zucker rat sub-chronic fa/fa prediabetic model at 10 mg/kg, po qd for 15 days by microarray analysis relative to control; format: functional
[29] = biological target: Peroxisome proliferator-activated receptor alpha (Homo sapiens, UniProt Q07869); test: Agonist activity at recombinant GST-tagged human PPARalpha LBD assessed as fluorescein-labeled coactivator peptide recruitment preincubated with enzyme followed by coactivator addition by LanthaScreen TR-FRET assay
[30] = tested on: Rattus norvegicus; test: Toxicity in Zucker rat sub-chronic fa/fa prediabetic model assessed as epididymal white adipose tissue weight at 1 mg/kg, po qd for 31 days measured on day 32 (reference value: 13.9 +/- 0.6 g); format: organism-based; settings: in vivo, 744 h
[31] = tested on: Rattus norvegicus; test: Effect on PIK3CD gene expression in epididymal white adipose tissue of Zucker rat sub-chronic fa/fa prediabetic model at 10 mg/kg, po qd for 15 days by microarray analysis relative to control; format: functional
[32] = tested on: Rattus norvegicus; test: Effect on ACOT4 gene expression in epididymal white adipose tissue of Zucker rat sub-chronic fa/fa prediabetic model at 10 mg/kg, po qd for 15 days by microarray analysis relative to control; format: functional

Peroxisome proliferator-activated receptor alpha, sequence (Q07869 whole entry, the tested form may be a part): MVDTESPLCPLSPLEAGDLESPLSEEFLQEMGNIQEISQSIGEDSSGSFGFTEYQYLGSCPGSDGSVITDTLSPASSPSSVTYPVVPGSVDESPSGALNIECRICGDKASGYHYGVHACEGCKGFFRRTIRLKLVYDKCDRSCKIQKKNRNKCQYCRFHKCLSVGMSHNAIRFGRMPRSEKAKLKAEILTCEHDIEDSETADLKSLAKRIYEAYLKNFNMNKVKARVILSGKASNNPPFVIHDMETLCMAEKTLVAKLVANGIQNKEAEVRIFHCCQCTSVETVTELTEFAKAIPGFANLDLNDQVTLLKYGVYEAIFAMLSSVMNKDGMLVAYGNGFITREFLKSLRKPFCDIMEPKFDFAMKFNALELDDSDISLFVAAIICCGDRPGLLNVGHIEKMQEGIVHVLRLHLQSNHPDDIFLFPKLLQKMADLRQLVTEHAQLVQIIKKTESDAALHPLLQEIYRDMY
Sodium channel protein type 2 subunit alpha (Homo sapiens), sequence (Q99250 whole entry, looked up): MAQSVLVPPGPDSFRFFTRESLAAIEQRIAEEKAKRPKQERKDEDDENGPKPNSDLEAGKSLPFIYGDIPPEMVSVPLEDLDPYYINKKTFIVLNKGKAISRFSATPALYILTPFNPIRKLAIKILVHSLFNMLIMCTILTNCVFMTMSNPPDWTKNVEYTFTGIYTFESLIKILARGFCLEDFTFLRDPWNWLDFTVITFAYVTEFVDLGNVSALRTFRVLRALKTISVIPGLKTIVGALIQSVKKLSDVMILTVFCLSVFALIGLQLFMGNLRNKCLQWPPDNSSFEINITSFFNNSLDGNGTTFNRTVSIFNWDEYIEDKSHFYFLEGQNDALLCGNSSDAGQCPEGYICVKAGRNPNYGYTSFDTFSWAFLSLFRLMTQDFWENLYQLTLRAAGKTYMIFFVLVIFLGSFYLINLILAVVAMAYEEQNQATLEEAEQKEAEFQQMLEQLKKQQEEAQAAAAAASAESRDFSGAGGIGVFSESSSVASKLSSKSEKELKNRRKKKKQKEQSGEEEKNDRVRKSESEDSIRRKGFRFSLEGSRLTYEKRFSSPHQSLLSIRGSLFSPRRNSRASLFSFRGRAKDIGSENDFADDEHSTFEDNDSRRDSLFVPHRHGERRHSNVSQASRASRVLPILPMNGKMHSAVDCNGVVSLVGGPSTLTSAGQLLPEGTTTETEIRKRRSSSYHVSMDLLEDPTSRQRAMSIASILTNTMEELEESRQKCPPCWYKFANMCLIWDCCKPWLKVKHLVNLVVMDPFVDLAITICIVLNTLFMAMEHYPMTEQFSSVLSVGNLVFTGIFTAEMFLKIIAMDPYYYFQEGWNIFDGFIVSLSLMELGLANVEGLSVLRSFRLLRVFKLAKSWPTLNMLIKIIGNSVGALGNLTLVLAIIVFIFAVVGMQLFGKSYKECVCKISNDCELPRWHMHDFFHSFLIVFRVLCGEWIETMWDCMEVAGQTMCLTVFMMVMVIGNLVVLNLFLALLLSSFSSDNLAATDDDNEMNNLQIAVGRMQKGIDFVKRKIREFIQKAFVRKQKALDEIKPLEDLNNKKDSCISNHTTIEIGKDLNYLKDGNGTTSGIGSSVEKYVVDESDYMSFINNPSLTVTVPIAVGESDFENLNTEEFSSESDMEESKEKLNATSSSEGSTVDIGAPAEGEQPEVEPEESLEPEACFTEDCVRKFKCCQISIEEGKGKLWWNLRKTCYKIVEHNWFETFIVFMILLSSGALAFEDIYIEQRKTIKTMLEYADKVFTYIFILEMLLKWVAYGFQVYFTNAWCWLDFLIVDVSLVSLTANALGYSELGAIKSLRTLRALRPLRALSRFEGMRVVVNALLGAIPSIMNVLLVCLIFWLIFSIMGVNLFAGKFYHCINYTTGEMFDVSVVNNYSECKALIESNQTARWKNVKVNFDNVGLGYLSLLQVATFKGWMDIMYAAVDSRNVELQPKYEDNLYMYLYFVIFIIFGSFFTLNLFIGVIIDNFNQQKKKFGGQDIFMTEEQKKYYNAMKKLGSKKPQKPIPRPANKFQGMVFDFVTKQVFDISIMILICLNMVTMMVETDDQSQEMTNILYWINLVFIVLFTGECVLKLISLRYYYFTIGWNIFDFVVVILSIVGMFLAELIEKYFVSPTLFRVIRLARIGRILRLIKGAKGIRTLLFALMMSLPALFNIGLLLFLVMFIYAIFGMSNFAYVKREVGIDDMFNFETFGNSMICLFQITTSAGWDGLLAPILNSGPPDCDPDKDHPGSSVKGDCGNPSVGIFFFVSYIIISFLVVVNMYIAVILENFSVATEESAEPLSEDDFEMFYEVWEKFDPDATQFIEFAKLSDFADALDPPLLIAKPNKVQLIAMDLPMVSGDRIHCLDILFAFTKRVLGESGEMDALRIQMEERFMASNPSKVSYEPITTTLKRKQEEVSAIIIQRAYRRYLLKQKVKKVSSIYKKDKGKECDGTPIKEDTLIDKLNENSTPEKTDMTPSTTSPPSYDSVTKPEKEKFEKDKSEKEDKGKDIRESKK

In the case of CN1CC[C@@H](N2C(=O)S/C(=C\c3ccc4c(cnn4Cc4ccc(Cl)cc4C(F)(F)F)c3)C2=O)[C@H](F)C1, the Activity [1] is reported as 1.16 g, the Activity [2] is reported as 179 mg/dL and the “fold change (FC)” value [3] is reported as 1.214. The Activity [4] was 20.6 g, the “fold change (FC)” value [5] was 1.559 and the Activity [6] was 72.7 µg. For the same compound, the Activity [7] was 6.3 g, the Activity [8] was “inactive” and the “fold change (FC)” value [9] was -1.241. The “fold change (FC)” value [10] was 1.311, the “fold change (FC)” value [11] was 1.239 and the Activity [12] was 0.44 mg/dL. The AUC at 24 h [13] was 31600 ng·h/mL, the “fold change (FC)” value [14] was 1.655 and the Activity [15] was 138 mg/dL. It also gave an Activity [16] of 2.95 g, an Activity [17] of 159 U/L and an Activity [18] of 46.2 g. For the same compound, the Activity [19] was 152.4 g, the Activity [20] was -46% and the “fold change (FC)” value [21] was 2.931. The “fold change (FC)” value [22] was -1.893, the Cmax [23] was 1220 ng/mL and the Activity [24] was 223 mg/dL. The Cmax [25] was 683 ng/mL, the Activity [26] was 4.8 µg/L and the “fold change (FC)” value [27] was -2.752. The “fold change (FC)” value [28] was 1.396, the EC50 [29] was over 10 µM and the Activity [30] was 16.9 g. The “fold change (FC)” value [31] was -1.312 and the “fold change (FC)” value [32] was 2.122.
